For 27 molecules, IC50 results are on record in patent US20260042753A1 (Merck Patent GmbH, priority 2019, published 2026).

SMILES strings stand for the structures.

For experiment [1], the target named is c-Kit(V654A) (Homo sapiens, UniProt P10721, V654A). In words: c-Kit(V654A) assay. It is filed as biochemical. Particulars: Table 1; 200 μM ATP. The method in brief:
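Radiometric filter-binding read-out: after 3% phosphoric acid stop, peptide-incorporated 33P on filtermat scintillation-counted. Enzyme: human c-Kit V654A, residues 544–end, N-terminal GST fusion.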

The target in experiment [2] is mutant cKIT (560-576 and V654A) in GIST430/654 cell line (Homo sapiens (Human), UniProt P10721, DEL560-576/V654A). In words: Cellular testing of cKIT mutant inhibitors: phospho-Y307-cKIT Luminex assay in GIST430/654 cells. The format is cell-based. Particulars: Table 1; cKIT autophosphorylation, compounds 45 min; read-out: GIST 430/654 IC50. The method in brief: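 GIST430/654 cells carrying constitutively active cKIT (Δ560-576/V654A) were grown with 100 nM imatinib, then treated with serially diluted compound for 45 min. Lysates were captured on anti-total-cKIT Luminex beads overnight at 4 °C and probed for phospho-Y307-cKIT. IC50 was fitted from percent of 0.3% DMSO control.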
mutant cKIT (560-576 and V654A) in GIST430/654 cell line, sequence (P10721 other isoform, or with tags, fused parts or gaps V654A/del 1-25/del 560-576 limits assumed): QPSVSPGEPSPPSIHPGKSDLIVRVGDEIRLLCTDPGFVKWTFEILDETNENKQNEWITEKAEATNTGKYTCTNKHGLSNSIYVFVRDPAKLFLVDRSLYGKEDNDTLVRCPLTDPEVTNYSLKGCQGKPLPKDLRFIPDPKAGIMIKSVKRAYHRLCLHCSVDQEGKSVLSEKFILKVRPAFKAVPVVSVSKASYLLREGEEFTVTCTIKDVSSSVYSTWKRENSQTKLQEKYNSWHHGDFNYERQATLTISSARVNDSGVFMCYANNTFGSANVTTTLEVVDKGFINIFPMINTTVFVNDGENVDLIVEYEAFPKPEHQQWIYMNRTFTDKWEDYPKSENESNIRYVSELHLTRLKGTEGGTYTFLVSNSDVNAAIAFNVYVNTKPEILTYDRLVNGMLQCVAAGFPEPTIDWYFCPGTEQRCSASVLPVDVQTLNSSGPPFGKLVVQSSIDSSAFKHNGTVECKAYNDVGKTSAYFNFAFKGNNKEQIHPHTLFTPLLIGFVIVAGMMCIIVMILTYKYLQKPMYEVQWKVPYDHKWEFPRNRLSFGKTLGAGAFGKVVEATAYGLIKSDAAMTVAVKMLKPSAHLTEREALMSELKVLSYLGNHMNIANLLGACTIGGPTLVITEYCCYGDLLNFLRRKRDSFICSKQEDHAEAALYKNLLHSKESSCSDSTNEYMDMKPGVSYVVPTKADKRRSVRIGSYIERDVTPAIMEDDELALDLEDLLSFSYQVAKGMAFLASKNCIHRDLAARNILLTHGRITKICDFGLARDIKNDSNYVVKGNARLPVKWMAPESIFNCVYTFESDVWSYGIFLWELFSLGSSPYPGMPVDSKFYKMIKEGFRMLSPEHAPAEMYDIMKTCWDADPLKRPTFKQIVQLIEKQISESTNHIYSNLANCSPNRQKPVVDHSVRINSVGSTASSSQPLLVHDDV

In the case of `COCCOc1cc2[nH]nc(-c3cc(-c4ccc(C(=O)N5CC6(CCO6)C5)cc4)no3)c2cc1F` [A79, 5-fluoro-6-(2-methoxyethoxy)-3-[3-(4-{1-oxa-6-azaspiro[3.3]heptane-6-carbonyl}phenyl)-1,2-oxazol-5-yl]-1H-indazole], the results for the IC50 in experiment [1] and in experiment [2] were 1.1 nM and 170 nM, respectively.

For the molecule `COCCOc1cc2[nH]nc(-c3cc(-c4ccc(C(=O)N5CCS(=N)(=O)CC5)cc4)no3)c2cc1F` [A80, 4-(4-{5-[5-fluoro-6-(2-methoxyethoxy)-1H-indazol-3-yl]-1,2-oxazol-3-yl}benzoyl)-1-imino-1lambda6-thiomorpholin-1-one], the results for the IC50 in experiment [1] and in experiment [2] were 0.99 nM and 460 nM, respectively.

With `COCCOc1cc2[nH]nc(-c3cc(-c4ccc(C(=O)N5CC(F)C5)cn4)no3)c2cc1F` [A81, 5-fluoro-3-{3-[5-(3-fluoroazetidine-1-carbonyl)pyridin-2-yl]-1,2-oxazol-5-yl}-6-(2-methoxyethoxy)-1H-indazole], the results for the IC50 in experiment [1] and in experiment [2] were 6 nM and 210 nM, respectively.

In the case of `COCCOc1cc2[nH]nc(-c3cc(-c4ccc(C(=O)N5CC(N6CCOCC6)C5)cn4)no3)c2cc1F` [A82, 5-fluoro-6-(2-methoxyethoxy)-3-(3-{5-[3-(morpholin-4-yl)azetidine-1-carbonyl]pyridin-2-yl}-1,2-oxazol-5-yl)-1H-indazole], the IC50 in experiment [1] was determined as 9.8 nM; in experiment [2], 420 nM.

As to `COCCOc1cc2[nH]nc(-c3cc(-c4nc(C(=O)N5CC(N6CCOCC6)C5)cs4)no3)c2cc1F` [A84, 5-fluoro-6-(2-methoxyethoxy)-3-(3-{4-[3-(morpholin-4-yl)azetidine-1-carbonyl]-1,3-thiazol-2-yl}-1,2-oxazol-5-yl)-1H-indazole], the results for the IC50 in experiment [1] and in experiment [2] were 35 nM and 1800 nM, respectively.

For the molecule `COCCOc1cc2[nH]nc(-c3cc(-c4ccc(C(=O)N5CC(n6ccnc6)C5)cc4)no3)c2cc1F` [A85, 5-fluoro-3-(3-{4-[3-(1H-imidazol-1-yl)azetidine-1-carbonyl]phenyl}-1,2-oxazol-5-yl)-6-(2-methoxyethoxy)-1H-indazole], the IC50 in experiment [1] amounted to 0.63 nM; in experiment [2], 130 nM.

Regarding `COCCOc1cc2[nH]nc(-c3cc(-c4nc(C(=O)N5CC(F)C5)cs4)no3)c2cc1F` [A87, 5-fluoro-3-{3-[4-(3-fluoroazetidine-1-carbonyl)-1,3-thiazol-2-yl]-1,2-oxazol-5-yl}-6-(2-methoxyethoxy)-1H-indazole], the IC50 in experiment [1] stood at 38 nM; in experiment [2] it was 590 nM.

`COCCOc1cc2[nH]nc(-c3cc(-c4ccc(C(=O)N5CC6(CN(C)C6)C5)cc4)no3)c2cc1F` [A88, 5-fluoro-6-(2-methoxyethoxy)-3-[3-(4-{6-methyl-2,6-diazaspiro[3.3]heptane-2-carbonyl}phenyl)-1,2-oxazol-5-yl]-1H-indazole]: the IC50 in experiment [1] was 2.3 nM; in experiment [2], 170 nM.

In the case of `COCCOc1cc2[nH]nc(-c3cc(-c4ccc(C(=O)N5CCC[C@H]5CNS(C)(=O)=O)cc4)no3)c2cc1F` [A90, N-{[(2S)-1-(4-{5-[5-fluoro-6-(2-methoxyethoxy)-1H-indazol-3-yl]-1,2-oxazol-3-yl}benzoyl)pyrrolidin-2-yl]methyl}methanesulfonamide], the IC50 in experiment [1] turned out to be 0.47 nM; in experiment [2], 120 nM.

Regarding `COCCOc1cc2[nH]nc(-c3cc(-c4ccc(C(=O)N(C)C)cn4)no3)c2cc1F` [A91, 6-{5-[5-fluoro-6-(2-methoxyethoxy)-1H-indazol-3-yl]-1,2-oxazol-3-yl}-N,N-dimethylpyridine-3-carboxamide], the IC50 in experiment [1] turned out to be 7.2 nM; in experiment [2] it was 290 nM.

Take `COCCOc1cc2[nH]nc(-c3cc(-c4ncc(C(=O)N(C)C)s4)no3)c2cc1F` [A92, 2-{5-[5-fluoro-6-(2-methoxyethoxy)-1H-indazol-3-yl]-1,2-oxazol-3-yl}-N,N-dimethyl-1,3-thiazole-5-carboxamide]: the figures for the IC50 in experiment [1] and in experiment [2] were 55 nM and 360 nM, respectively.

In the case of `COCCOc1cc2[nH]nc(-c3cc(-c4nc(C(=O)N(C)C)cs4)no3)c2cc1F` [A93, 2-{5-[5-fluoro-6-(2-methoxyethoxy)-1H-indazol-3-yl]-1,2-oxazol-3-yl}-N,N-dimethyl-1,3-thiazole-4-carboxamide], the IC50 in experiment [1] came out at 53 nM; in experiment [2], 390 nM.

In the case of `COCCOc1cc2[nH]nc(-c3cc(-c4ccc(C(=O)N5CCC[C@@H]5CNS(C)(=O)=O)cc4)no3)c2cc1F` [A94, N-{[(2R)-1-(4-{5-[5-fluoro-6-(2-methoxyethoxy)-1H-indazol-3-yl]-1,2-oxazol-3-yl}benzoyl)pyrrolidin-2-yl]methyl}methanesulfonamide], the IC50 in experiment [1] was 0.58 nM; in experiment [2], 100 nM.

As for `COCCOc1cc2[nH]nc(-c3cc(-c4ccc(C(=O)N5CC[C@H]5CO)cc4)no3)c2cc1F` [A95, [(2S)-1-(4-{5-[5-fluoro-6-(2-methoxyethoxy)-1H-indazol-3-yl]-1,2-oxazol-3-yl}benzoyl)azetidin-2-yl]methanol], the IC50 was found to be 0.91 nM in experiment [1] and 37 nM in experiment [2].

For the molecule `COCCOc1cc2[nH]nc(-c3cc(-c4ccc(C(=O)N5CC(C#N)C5)nc4)no3)c2cc1F` [A96, 1-(5-{5-[5-fluoro-6-(2-methoxy-ethoxy)-1H-indazol-3-yl]-isoxazol-3-yl}-pyridine-2-carbonyl)-azetidine-3-carbonitrile], the IC50 in experiment [1] is 21 nM; in experiment [2], 740 nM.

In the case of `COCCOc1cc2[nH]nc(-c3cc(-c4ccc(C(=O)N5CC[C@@H]5CO)cc4)no3)c2cc1F` [A97, [(2R)-1-(4-{5-[5-fluoro-6-(2-methoxyethoxy)-1H-indazol-3-yl]-1,2-oxazol-3-yl}benzoyl)azetidin-2-yl]methanol], the IC50 came out at 0.97 nM in experiment [1] and 41 nM in experiment [2].

In the case of `COCCOc1cc2[nH]nc(-c3cc(-c4ccc(C(=O)N5CC(F)C5)nc4)no3)c2cc1F` [A98, (3-fluoro-azetidin-1-yl)-(5-{5-[5-fluoro-6-(2-methoxy-ethoxy)-1H-indazol-3-yl]-isoxazol-3-yl}-pyridin-2-yl)-methanone], the values for the IC50 in experiment [1] and in experiment [2] were 15 nM and 860 nM, respectively.

Turning to `COCCOc1cc2[nH]nc(-c3cc(-c4ccc(C(=O)N(C)C)nc4)no3)c2cc1F` [A99, 5-{5-[5-fluoro-6-(2-methoxy-ethoxy)-1H-indazol-3-yl]-isoxazol-3-yl}-pyridine-2-carboxylic acid dimethylamide], the IC50 in experiment [1] came to 6.9 nM; in experiment [2], 670 nM.

Turning to `COCCOc1cc2[nH]nc(-c3cc(-c4ccc(C(=O)N5CC[C@@H](F)C5)nc4)no3)c2cc1F` [A100, 5-fluoro-3-(3-{6-[(3R)-3-fluoropyrrolidine-1-carbonyl]pyridin-3-yl}-1,2-oxazol-5-yl)-6-(2-methoxyethoxy)-1H-indazole], the results for the IC50 in experiment [1] and in experiment [2] were 5.7 nM and 340 nM, respectively.

Take `COCCOc1cc2[nH]nc(-c3cc(-c4ccc(C(=O)N5CC(N6CC(F)C6)C5)cc4)no3)c2cc1F` [A101, 5-fluoro-3-[3-(4-{3-fluoro-[1,3′-biazetidine]-1′-carbonyl}phenyl)-1,2-oxazol-5-yl]-6-(2-methoxyethoxy)-1H-indazole]: the IC50 in experiment [1] was 0.94 nM; in experiment [2], 160 nM.

Take `COCCOc1cc2[nH]nc(-c3cc(-c4ccc(C(=O)N5CC(N6CCN(C)CC6)C5)cc4)no3)c2cc1F` [A102, 5-fluoro-6-(2-methoxyethoxy)-3-(3-{4-[3-(4-methylpiperazin-1-yl)azetidine-1-carbonyl]phenyl}-1,2-oxazol-5-yl)-1H-indazole]: the values for the IC50 in experiment [1] and in experiment [2] were 1.3 nM and 160 nM, respectively.

On to `COCCOc1cc2[nH]nc(-c3cc(-c4ccc(C(=O)N5CC(N6CCC(O)CC6)C5)cc4)no3)c2cc1F` [A103, 1-[1-(4-{5-[5-fluoro-6-(2-methoxyethoxy)-1H-indazol-3-yl]-1,2-oxazol-3-yl}benzoyl)azetidin-3-yl]piperidin-4-ol], for which the IC50 was 0.96 nM in experiment [1] and 140 nM in experiment [2].

As to `COCCOc1cc2[nH]nc(-c3cc(-c4ccc(C(=O)N5CCOCC5)cc4)no3)c2cc1F` [A104, 5-fluoro-6-(2-methoxyethoxy)-3-{3-[4-(morpholine-4-carbonyl)phenyl]-1,2-oxazol-5-yl}-1H-indazole], the IC50 was 0.79 nM in experiment [1] and 58 nM in experiment [2].

Consider `COCCOc1cc2[nH]nc(-c3cc(-c4ccc(C(=O)N5CCOC[C@H]5CO)cc4)no3)c2cc1F` [A105, [(3R)-4-(4-{5-[5-fluoro-6-(2-methoxyethoxy)-1H-indazol-3-yl]-1,2-oxazol-3-yl}benzoyl)morpholin-3-yl]methanol], for which the IC50 in experiment [1] is 1.2 nM; in experiment [2], 140 nM.

In the case of `COCCOc1cc2[nH]nc(-c3cc(-c4ccc(C(=O)N5CCOC[C@@H]5CO)cc4)no3)c2cc1F` [A106, [(3S)-4-(4-{5-[5-fluoro-6-(2-methoxyethoxy)-1H-indazol-3-yl]-1,2-oxazol-3-yl}benzoyl)morpholin-3-yl]methanol], the values for the IC50 in experiment [1] and in experiment [2] were 0.7 nM and 77 nM, respectively.

In the case of `COCCOc1cc2[nH]nc(-c3cc(-c4ccc(C(=O)N5CCC[C@H]5C(C)(C)O)nc4)no3)c2cc1F` [A107, 2-[(2S)-1-(5-{5-[5-fluoro-6-(2-methoxyethoxy)-1H-indazol-3-yl]-1,2-oxazol-3-yl}pyridine-2-carbonyl)pyrrolidin-2-yl]propan-2-ol], the results for the IC50 in experiment [1] and in experiment [2] were 5.6 nM and 53 nM, respectively.

Take `COCCOc1cc2[nH]nc(-c3cc(-c4ccc(C(=O)N5C6CC5CS(=O)(=O)C6)cc4)no3)c2cc1F` [A108, 6-(4-{5-[5-fluoro-6-(2-methoxyethoxy)-1H-indazol-3-yl]-1,2-oxazol-3-yl}benzoyl)-3lambda6-thia-6-azabicyclo[3.1.1]heptane-3,3-dione]: the IC50 was 0.81 nM in experiment [1] and 56 nM in experiment [2].
